Reference: patent US20060178357A1, “Chphalosporin-derived mercaptans as inhibitors of serine and metallo-beta-lactamases” (priority 2005, published 2006)

Tests used:
[1] = tested on: class B β-lactamases (L1 metallo-β-lactamase derived from Stenotrophomonas maltophilia; metallo-β-lactamase derived from Bacillus cereus); test: β-lactamase inhibition (IC50, nitrocefin hydrolysis) against class B metallo-β-lactamases; format: biochemical; conditions: 4 min incubation of inhibitor and enzyme, substrate nitrocefin, 480 nm; statement in words summarising Table 1
Procedure: (§1) Representative compounds of the invention were evaluated as inhibitors of two serine β-lactamases: Enterobacter cloacae P99 (class C), TEM-1 (class A), as well as two class B enzymes: the L1 metallo-β-lactamse derived from Stenotrophomonas maltophilia) and the metallo-β-lactamase derived from the Bacillus cereus microorganism. The IC50 value of each compound was determined as follows. Assay method involves 4 min incubation of a solution of inhibitor and enzyme (0.1 to 1 μM in enzyme), followed by transfer of an aliquot into a dilute solution of the substrate nitrocefin. Hydrolysis is monitored spectrophotometrically at 480 nm for 1 min. The rate is constant throughout this period. Error is ±10%, based on multiple experiments.

[2] = target: Enterobacter cloacae P99 (class C) β-lactamase (Enterobacter cloacae, UniProt P05364); test: β-lactamase inhibition (IC50, nitrocefin hydrolysis) against class C serine β-lactamase; format: biochemical; conditions: 4 min incubation of inhibitor and enzyme, substrate nitrocefin, 480 nm; comparison in words summarising Table 1
Sequence of Enterobacter cloacae P99 (class C) β-lactamase (P05364 21-381): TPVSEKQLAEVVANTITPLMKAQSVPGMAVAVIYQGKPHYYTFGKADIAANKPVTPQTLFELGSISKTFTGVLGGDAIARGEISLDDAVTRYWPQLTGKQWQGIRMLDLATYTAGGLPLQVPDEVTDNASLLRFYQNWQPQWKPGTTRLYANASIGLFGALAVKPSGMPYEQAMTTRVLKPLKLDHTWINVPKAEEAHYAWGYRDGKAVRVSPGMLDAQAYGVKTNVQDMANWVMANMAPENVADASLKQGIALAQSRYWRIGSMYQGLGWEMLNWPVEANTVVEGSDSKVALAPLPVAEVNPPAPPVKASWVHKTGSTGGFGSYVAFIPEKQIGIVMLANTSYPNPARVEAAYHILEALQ
Procedure: as §1

With `CC(=O)OCC1=C(C(=O)[O-])N2C(=O)C(CS)C2S(=O)(=O)C1.[Na+]` (stereo not drawn) [Compound 22, Sodium salt of 7α-(mercaptomethyl)cephalosporanate-1,1-dioxide] the “ability to inhibit the class B β-lactamases” value [1] was “possess the ability to inhibit the class B β-lactamases” and the “inhibition activity against a representative class C β-lactamase relative to tazobactam” value [2] was “superior to tazobactam”.

With `CC(=O)OCC1=C(C(=O)[O-])N2C(=O)C(CS)C2SC1.[Na+]` (stereo not drawn) [Compound 26, Sodium salt of 7α-(mercaptomethyl)cephalosporanate] the “ability to inhibit the class B β-lactamases” value [1] was “possess the ability to inhibit the class B β-lactamases” and the “inhibition activity against a representative class C β-lactamase relative to tazobactam” value [2] was “superior to tazobactam”.

For `CC(=O)OCC1=C(C(=O)[O-])N2C(=O)C(CS)C2[S+]([O-])C1.[Na+]` (stereo not drawn) [Compound 17, Sodium salt of 7β-(mercaptomethyl)cephalosporanate-1β-oxide], the “ability to inhibit the class B β-lactamases” value [1] was “possess the ability to inhibit the class B β-lactamases”.

`C[C@]1(Cn2ccnn2)[C@H](C(=O)O)N2C(=O)C[C@H]2S1(=O)=O` [tazobactam, reference compound] was tested, and the “ability to inhibit the class B β-lactamases” value [1] was “does not possess such ability”.

For `CC(=O)OCC1=C(C(=O)[O-])N2C(=O)C(CS)C2SC1.[Na+]` (stereo not drawn) [Compound 12, Sodium salt of 7β-(mercaptomethyl)cephalosporanate], the “ability to inhibit the class B β-lactamases” value [1] was “possess the ability to inhibit the class B β-lactamases”.

In the case of `CC(=O)OCC1=C(C(=O)[O-])N2C(=O)C(CS)C2[S+]([O-])C1.[Na+]` (stereo not drawn) [Compound 29, Sodium salt of 7α-(mercaptomethyl)cephalosporanate-1α-oxide], the “ability to inhibit the class B β-lactamases” value [1] is reported as “possess the ability to inhibit the class B β-lactamases” and the “inhibition activity against a representative class C β-lactamase relative to tazobactam” value [2] is reported as “superior to tazobactam”.

`CC(=O)OCC1=C(C(=O)[O-])N2C(=O)C(CS)C2S(=O)(=O)C1.[Na+]` (stereo not drawn) [Compound 15, Sodium salt of 7β-(mercaptomethyl)cephalosporanate-1,1-dioxide] was tested, and the “ability to inhibit the class B β-lactamases” value [1] was “possess the ability to inhibit the class B β-lactamases”.

In the case of `CC(=O)OCC1=C(C(=O)[O-])N2C(=O)C(CS)C2[S+]([O-])C1.[Na+]` (stereo not drawn) [Compound 19, Sodium salt of 7α-(mercaptomethyl)cephalosporanate-1β-oxide], the “ability to inhibit the class B β-lactamases” value [1] is reported as “possess the ability to inhibit the class B β-lactamases”.
